In the test the test system is Wnt pathway. Put plainly: Wnt activity reporter assay (SP5 promoter-luciferase in SW480 cells). In kind it is cell-based. Conditions: Homo sapiens, SP5 promoter firefly luciferase reporter, read-out: Wnt inhibition. From the text:
The above synthesized compounds were screened using the assay procedure for Wnt activity described below.
Reporter cell lines can be generated by stably transducing cells of cancer cell lines (e.g., colon cancer) with a lentiviral construct that include a wnt-responsive promoter driving expression of the firefly luciferase gene.
Lentiviral constructs can be made in which the SP5 promoter, a promoter having eight TCF/LEF binding sites derived from the SP5 promoter, is linked upstream of the firefly luciferase gene. The lentiviral constructs can also include a hygromycin resistance gene as a selectable marker. The SP5 promoter construct can be used to transduce SW480 cells, a colon cancer cell line having a mutated APC gene that generates a truncated APC protein, leading to de-regulated accumulation of β-catenin.
Cultured SW480 cells bearing a reporter construct can be distributed at approximately 10,000 cells per well into 96 well or 384 well plates. Compounds from a small molecule compound library can then be added to the wells in half-log dilutions using a ten micromolar top concentration. A series of control wells for each cell type receive only buffer and compound solvent. Twenty-four to forty hours after the addition of compound, reporter activity for luciferase can be assayed, for example, by addition of the BrightGlo luminescence reagent (Promega) and the Victor3 plate reader (Perkin Elmer). Readings can be normalized to DMSO only treated cells, and normalized activities can then be used in the IC50 calculations.
(In a reporter assay the amount or activity of a reporter protein is the signal.)
Turning to `CCCC(=O)Nc1cncc(-c2cnc3[nH]nc(-c4nc5c(-c6ccccc6F)cncc5[nH]4)c3c2)c1` [Compound 158, N-(5-(3-(7-(2-Fluorophenyl)-3H-imidazo[4,5-c]pyridin-2-yl)-1H-pyrazolo[3,4-b]pyridin-5-yl)pyridin-3-yl)butyramide], the IC50 came to 8 nM.

Regarding `CN(C)Cc1cncc(-c2cnc3[nH]nc(-c4nc5c(-c6cccnc6)cncc5[nH]4)c3c2)c1` [Compound 176, N,N-Dimethyl-1-(5-(3-(7-(pyridin-3-yl)-3H-imidazo[4,5-c]pyridin-2-yl)-1H-pyrazolo[3,4-b]pyridin-5-yl)pyridin-3-yl)methanamine], the IC50 was 1550 nM.

As to `c1cncc(-c2cncc3[nH]c(-c4n[nH]c5ncc(-c6cncc(CN7CCCCC7)c6)cc45)nc23)c1` [Compound 178, 5-(5-(Piperidin-1-ylmethyl)pyridin-3-yl)-3-(7-(pyridin-3-yl)-3H-imidazo[4,5-c]pyridin-2-yl)-1H-pyrazolo[3,4-b]pyridine], the IC50 was 392 nM.

Consider `CC(C)(C)CC(=O)Nc1cncc(-c2cnc3[nH]nc(-c4nc5c(-c6cccnc6)cncc5[nH]4)c3c2)c1` [Compound 179, 3,3-Dimethyl-N-(5-(3-(7-(pyridin-3-yl)-3H-imidazo[4,5-c]pyridin-2-yl)-1H-pyrazolo[3,4-b]pyridin-5-yl)pyridin-3-yl)butanamide], for which the IC50 came to 1450 nM.

For `O=C(Nc1cncc(-c2cnc3[nH]nc(-c4nc5c(-c6cccnc6)cncc5[nH]4)c3c2)c1)C1CCCCC1` [Compound 185, N-(5-(3-(7-(Pyridin-3-yl)-3H-imidazo[4,5-c]pyridin-2-yl)-1H-pyrazolo[3,4-b]pyridin-5-yl)pyridin-3-yl)cyclohexanecarboxamide], the IC50 was found to be 1320 nM.

For the molecule `Cc1ccncc1-c1cnc2[nH]nc(-c3nc4c(-c5ccncc5)cncc4[nH]3)c2c1` [Compound 192, 5-(4-Methylpyridin-3-yl)-3-(7-(pyridin-4-yl)-3H-imidazo[4,5-c]pyridin-2-yl)-1H-pyrazolo[3,4-b]pyridine], the IC50 is 1050 nM.

Turning to `CC(C)Nc1cncc(-c2cnc3[nH]nc(-c4nc5c(-c6ccncc6)cncc5[nH]4)c3c2)c1` [Compound 198, N-Isopropyl-5-(3-(7-(pyridin-4-yl)-3H-imidazo[4,5-c]pyridin-2-yl)-1H-pyrazolo[3,4-b]pyridin-5-yl)pyridin-3-amine], the IC50 stood at 1130 nM.

On to `c1ccc(CNCc2cncc(-c3cnc4[nH]nc(-c5nc6c(-c7ccncc7)cncc6[nH]5)c4c3)c2)cc1` [Compound 209, N-Benzyl-1-(5-(3-(7-(pyridin-4-yl)-3H-imidazo[4,5-c]pyridin-2-yl)-1H-pyrazolo[3,4-b]pyridin-5-yl)pyridin-3-yl)methanamine], for which the IC50 amounted to 9800 nM.

As to `O=C(Nc1cncc(-c2cnc3[nH]nc(-c4nc5c(-c6ccccn6)cncc5[nH]4)c3c2)c1)C1CCC1` [Compound 229, N-(5-(3-(7-(Pyridin-2-yl)-3H-imidazo[4,5-c]pyridin-2-yl)-1H-pyrazolo[3,4-b]pyridin-5-yl)pyridin-3-yl)cyclobutanecarboxamide], the IC50 was found to be 12 nM.

As to `Nc1cncc(-c2cnc3[nH]nc(-c4nc5c(N6CCCCC6)cncc5[nH]4)c3c2)c1` [Compound 238, 5-(3-(7-(Piperidin-1-yl)-3H-imidazo[4,5-c]pyridin-2-yl)-1H-pyrazolo[3,4-b]pyridin-5-yl)pyridin-3-amine], the IC50 came to 350 nM.

With `CCNCc1cncc(-c2cnc3[nH]nc(-c4nc5c(N6CCCCC6)cncc5[nH]4)c3c2)c1` [Compound 241, N-((5-(3-(7-(Piperidin-1-yl)-3H-imidazo[4,5-c]pyridin-2-yl)-1H-pyrazolo[3,4-b]pyridin-5-yl)pyridin-3-yl)methyl)ethanamine], the IC50 turned out to be 190 nM.

For the molecule `O=C(Nc1cncc(-c2cnc3[nH]nc(-c4nc5c(N6CCCCC6)cncc5[nH]4)c3c2)c1)c1ccccc1` [Compound 246, N-(5-(3-(7-(Piperidin-1-yl)-3H-imidazo[4,5-c]pyridin-2-yl)-1H-pyrazolo[3,4-b]pyridin-5-yl)pyridin-3-yl)benzamide], the IC50 turned out to be 1270 nM.

Consider `c1ncc(-c2cnc3[nH]nc(-c4nc5c(N6CCCCC6)cncc5[nH]4)c3c2)cc1CN1CCCC1` [Compound 249, 3-(7-(Piperidin-1-yl)-3H-imidazo[4,5-c]pyridin-2-yl)-5-(5-(pyrrolidin-1-ylmethyl)pyridin-3-yl)-1H-pyrazolo[3,4-b]pyridine], for which the IC50 stood at 10000 nM.

As for `O=C(Nc1cncc(-c2cnc3[nH]nc(-c4nc5c(N6CCCCC6)cncc5[nH]4)c3c2)c1)C1CC1` [Compound 254, N-(5-(3-(7-(Piperidin-1-yl)-3H-imidazo[4,5-c]pyridin-2-yl)-1H-pyrazolo[3,4-b]pyridin-5-yl)pyridin-3-yl)cyclopropanecarboxamide], the IC50 was determined as 235 nM.

Turning to `CCCCC(=O)Nc1cncc(-c2cnc3[nH]nc(-c4nc5c(N6CCN(C)CC6)cncc5[nH]4)c3c2)c1` [Compound 305, N-(5-(3-(7-(4-Methylpiperazin-1-yl)-3H-imidazo[4,5-c]pyridin-2-yl)-1H-pyrazolo[3,4-b]pyridin-5-yl)pyridin-3-yl)pentanamide], the IC50 is 7350 nM.

For `CN1CCN(c2cncc3[nH]c(-c4n[nH]c5ncc(-c6cncc(NC(=O)C7CCCCC7)c6)cc45)nc23)CC1` [Compound 309, N-(5-(3-(7-(4-Methylpiperazin-1-yl)-3H-imidazo[4,5-c]pyridin-2-yl)-1H-pyrazolo[3,4-b]pyridin-5-yl)pyridin-3-yl)cyclohexanecarboxamide], the IC50 came out at 1020 nM.

In the case of `CC(C)Nc1cncc(-c2cnc3[nH]nc(-c4nc5ccncc5[nH]4)c3c2)c1` [Compound 325, 5-(3-(3H-Imidazo[4,5-c]pyridin-2-yl)-1H-pyrazolo[3,4-b]pyridin-5-yl)-N-isopropylpyridin-3-amine], the IC50 is 58 nM.

Turning to `c1ccc(CNCc2cncc(-c3cnc4[nH]nc(-c5nc6ccncc6[nH]5)c4c3)c2)cc1` [Compound 336, 1-(5-(3-(3H-Imidazo[4,5-c]pyridin-2-yl)-1H-pyrazolo[3,4-b]pyridin-5-yl)pyridin-3-yl)-N-benzylmethanamine], the IC50 was 790 nM.

For the molecule `CN(C)c1cncc(-c2cnc3[nH]nc(-c4nc5c(-c6ccsc6)cncc5[nH]4)c3c2)c1` [Compound 346, N,N-Dimethyl-5-(3-(7-(thiophen-3-yl)-3H-imidazo[4,5-c]pyridin-2-yl)-1H-pyrazolo[3,4-b]pyridin-5-yl)pyridin-3-amine], the IC50 was determined as 56 nM.

Regarding `CN(C)Cc1cncc(-c2cnc3[nH]nc(-c4nc5c(-c6ccsc6)cncc5[nH]4)c3c2)c1` [Compound 352, N,N-Dimethyl-1-(5-(3-(7-(thiophen-3-yl)-3H-imidazo[4,5-c]pyridin-2-yl)-1H-pyrazolo[3,4-b]pyridin-5-yl)pyridin-3-yl)methanamine], the IC50 came out at 57 nM.

Turning to `c1cc(-c2cncc3[nH]c(-c4n[nH]c5ncc(-c6cncc(CN7CCCCC7)c6)cc45)nc23)cs1` [Compound 354, 5-(5-(Piperidin-1-ylmethyl)pyridin-3-yl)-3-(7-(thiophen-3-yl)-3H-imidazo[4,5-c]pyridin-2-yl)-1H-pyrazolo[3,4-b]pyridine], the IC50 turned out to be 293 nM.

As for `CC(C)(C)C(=O)Nc1cncc(-c2cnc3[nH]nc(-c4nc5c(-c6ccoc6)cncc5[nH]4)c3c2)c1` [Compound 373, N-(5-(3-(7-(Furan-3-yl)-3H-imidazo[4,5-c]pyridin-2-yl)-1H-pyrazolo[3,4-b]pyridin-5-yl)pyridin-3-yl)pivalamide], the IC50 was 70 nM.

`O=C(Nc1cncc(-c2cnc3[nH]nc(-c4nc5c(-c6ccoc6)cncc5[nH]4)c3c2)c1)c1ccccc1` [Compound 376, N-(5-(3-(7-(Furan-3-yl)-3H-imidazo[4,5-c]pyridin-2-yl)-1H-pyrazolo[3,4-b]pyridin-5-yl)pyridin-3-yl)benzamide]: the IC50 was 51 nM.

On to `CCCC(=O)Nc1cncc(-c2cnc3[nH]nc(-c4nc5c(-c6ccoc6)cncc5[nH]4)c3c2)c1` [Compound 382, N-(5-(3-(7-(Furan-3-yl)-3H-imidazo[4,5-c]pyridin-2-yl)-1H-pyrazolo[3,4-b]pyridin-5-yl)pyridin-3-yl)butyramide], for which the IC50 came to 3 nM.

On to `CCC(=O)Nc1cncc(-c2cnc3[nH]nc(-c4nc5c(-c6cccs6)cncc5[nH]4)c3c2)c1` [Compound 440, N-(5-(3-(7-(Thiophen-2-yl)-3H-imidazo[4,5-c]pyridin-2-yl)-1H-pyrazolo[3,4-b]pyridin-5-yl)pyridin-3-yl)propionamide], for which the IC50 was found to be 4 nM.

On to `c1cncc(-c2cnc3[nH]nc(-c4nc5c(-c6cccs6)cncc5[nH]4)c3c2)c1` [Compound 443, 5-(Pyridin-3-yl)-3-(7-(thiophen-2-yl)-3H-imidazo[4,5-c]pyridin-2-yl)-1H-pyrazolo[3,4-b]pyridine], for which the IC50 came out at 1 nM.

With `O=C(Nc1cncc(-c2cnc3[nH]nc(-c4nc5c(-c6cccs6)cncc5[nH]4)c3c2)c1)C1CC1` [Compound 458, N-(5-(3-(7-(Thiophen-2-yl)-3H-imidazo[4,5-c]pyridin-2-yl)-1H-pyrazolo[3,4-b]pyridin-5-yl)pyridin-3-yl)cyclopropanecarboxamide], the IC50 was 22 nM.

As to `c1csc(-c2cncc3[nH]c(-c4n[nH]c5ncc(-c6cncc(CNCC7CCCC7)c6)cc45)nc23)c1` [Compound 463, 1-Cyclopentyl-N-((5-(3-(7-(thiophen-2-yl)-3H-imidazo[4,5-c]pyridin-2-yl)-1H-pyrazolo[3,4-b]pyridin-5-yl)pyridin-3-yl)methyl)methanamine], the IC50 was 98 nM.
